Assays:
[1] = In vitro antioxidant capacity, inhibition of DPD oxidation by electrolyzed KH buffer
Excerpt: Oxidation rate of N,N-diethyl-p-phenylenediamine (DPD) by a prooxidant system was used as a general reporter of the amount of ROS generated by that system (Anonymous, 1985; Chahine et al., 1991). Antioxidant capacity of preparations of TRIAD (or of its components) was defined as the extent (%) to which they inhibited the oxidation of DPD by prooxidants. To estimate the antioxidant capacity of TRIAD preparations in the conditions encountered during perfusion of hearts with electrolyzed buffer, 0.6 ml of modified KH not containing (control situation corresponding to 0% inhibition) or containing various concentrations of TRIAD, TRIAD (S2) or their components was subjected to 1-min electrolysis at 10 mA and then mixed with 0.3 ml of the non-electrolyzed counterpart of the solution to which 95 mM DPD was added. Determination of the amount of oxidized DPD was immediately done by reading absorbencies a 515 nm.

[2] = test system: isolated rat heart; test: Cardioprotection in electrolysis-induced ROS on isolated rat heart; conditions: Heart (ex vivo)
Experimental: (§1) All experiments were conformed to rules of the Guide for the care and use of laboratory animals published by the U.S. National Institutes of Health (NIH publication No 85-23, revised 1985). Adult male Wistar rats (225-250 g) were anaesthetized with sodium pentobarbitone (0.1 ml/100 g body weight) and then heparinised (500 Ul intra-peritoneally). Hearts were rapidly excised, placed in ice-cold oxygenated KH buffer solution, cleaned and then mounted on a modified Langendorff heart perfusion apparatus.
Hearts were cannulated via the aorta and retrogradely perfused at a constant perfusion pressure (90 mm Hg at 37° C.) with modified KH buffer. This solution was continuously gassed with a mixture of 95% O2 and 5% CO2 to maintain a pH of 7.4 at 37° C. […]
A saline-filled latex balloon was inserted into the left ventricle by way of the AV valve and connected via a polyethylene cannula to a pressure transducer for determination of Left Ventricular Pressure (LVP) and Left Ventricular End Diastolic Pressure (LVEDP). […] The LVP, LVEDP, and ECG were recorded on a Nihon-Kohden polygraph (RM 600); heart rate (HR) was calculated from the electrogram. Coronary flow (CF) was measured by time collection of coronary effluent at various times during the experiment. […]
The cardiodynamic variables were monitored during all the experimental period.

[3] = test system: isolated rat heart; test: Cardioprotection and reperfusion-induced arrhythmias in regional ischemia-reperfusion of isolated rat heart; conditions: Heart (ex vivo)
Experimental: as §1
Hearts were cannulated via the aorta and retrogradely perfused at a constant perfusion pressure (90 mm Hg at 37° C.) with modified KH buffer. […]
A saline-filled latex balloon was inserted into the left ventricle by way of the AV valve and connected via a polyethylene cannula to a pressure transducer for determination of Left Ventricular Pressure (LVP) and Left Ventricular End Diastolic Pressure (LVEDP). […] The LVP, LVEDP, and ECG were recorded on a Nihon-Kohden polygraph (RM 600); heart rate (HR) was calculated from the electrogram. Coronary flow (CF) was measured by time collection of coronary effluent at various times during the experiment.
Hearts were perfused for a 20 min control period with KH buffer, for stabilization. […] Left ventricular pressure and epicardial ECG were continuously monitored before and during ischemia and reperfusion. […]

CC(=O)C(=O)[O-].[Na+] [Pyruvate, sodium pyruvate]
Effect of fatty acids and vitamin E on action of pyruvate, the component that mostly contributed to antioxidant action ([1]; DPD (in vitro), electrolysis): (Pyruvate, ↑) | Antioxidant capacity (ROS scavenging) in vitro, comparison ([1]; electrolysis pro-oxidant system, DPD method, same concentrations): only a slightly lower ROS scavenging capacity | Effect of fatty acids and vitamin E on action of pyruvate, the component that mostly contributed to antioxidant action [2]: (Pyruvate, ↑) | Effect of fatty acids and vitamin E on action of pyruvate, the component that mostly contributed to antioxidant action [3]: (Pyruvate, ↓)

Source: patent publication US20020123525A1, “Cardioprotective composition and uses thereof” (GESTILAB INC., priority 1999, published 2002)
